This is an account of results in patent publication US7932277B2, “Peptide inhibitors of hepatitis C virus replication” (InterMune, Inc., priority 2007, dated 2011).

One may read the pEC50 as the EC50 on a negative log10 scale, so that one unit is a factor of ten. What is called pIC50 is −log10 of the IC50, conventionally taken in molar units.

pEC50, pIC50: −log10 of the molar value. Read-outs that look alike come from different tables or passages of the source.

The test system of assay [1] is HCV sub-genomic replicon (1377/NS3-3') in HuH-7 hepatoma cells (GS4.3). Briefly: Quantitation by ELISA of NPTII in the HCV sub-genomic replicon, GS4.3. It counts as cell-based, hepatitis C virus (HCV). The following applies: GS4.3 cells, 72 h incubation, NPTII ELISA, read-out: Replicon EC50. On the procedure: The HCV sub-genomic replicon (1377/NS3-3′, accession No. AJ242652), stably maintained in HuH-7 hepatoma cells, was created by Lohmann et al. Science 285: 110-113 (1999). The replicon-containing cell culture, designated GS4.3, was obtained from Dr. Christoph Seeger of the Institute for Cancer Research, Fox Chase Cancer Center, Philadelphia, Pa.
GS4.3 cells were maintained at 37° C., 5% CO2, in DMEM (Gibco 11965-092) supplemented with L-glutamine 200 mM (100×) (Gibco25030-081), non-essential amino acids (NEAA) (Biowhittaker 13-114E), heat-inactivated (HI) Fetal Bovine Serum (FBS) (Hyclone SH3007.03) and 750 μg/mL geneticin (G418)(Gibco 10131-035). Cells were sub-divided 1:3 or 4 every 2-3 days.
24 h prior to the assay, GS4.3 cells were collected, counted, and plated in 96-well plates (Costar 3585) at 7500 cells/well in 100 μL standard maintenance medium (above) and incubated in the conditions above. To initiate the assay, culture medium was removed, cells were washed once with PBS (Gibco 10010-023) and 90 μl Assay Medium (DMEM, L-glutamine, NEAA, 10% HI FBS, no G418) was added. Inhibitors were made as a 10× stock in Assay Medium, (3-fold dilutions from 10 μM to 56 pM final concentration, final DMSO concentration 1%), 10 μL were added to duplicate wells, plates were rocked to mix, and incubated as above for 72 h.
An NPTII Elisa kit was obtained from AGDIA, Inc. (Compound direct ELISA test system for Neomycin Phosphotransferase II, PSP 73000/4800). Manufacturer's instructions were followed, with some modifications. 10×PEB-1 lysis buffer was made up to include 500 μM PMSF (Sigma P7626, 50 mM stock in isopropanol). After 72 h incubation, cells were washed once with PBS and 150 μL PEB-1 with PMSF was added per well. Plates were agitated vigorously for 15 minutes, room temperature, then frozen at −70° C. Plates were thawed, lysates were mixed thoroughly, and 100 μl were applied to an NPTII Elisa plate. A standard curve was made. Lysate from DMSO-treated control cells was pooled, serially diluted with PEB-1 with PMSF, and applied to duplicate wells of the ELISA plate, in a range of initial lysate amount of 150 μL-2.5 μL. In addition, 100 μL buffer alone was applied in duplicate as a blank. Plates were sealed and gently agitated at room temperature for 2 h. Following capture incubation, the plates were washed 5×300 μL with PBS-T (0.5% Tween-20, PBS-T was supplied in the ELISA kit). For detection, a 1× dilution of enzyme conjugate diluent MRS-2 (5×) was made in PBS-T, into which 1:100 dilutions of enzyme conjugates A and B were added, as per instructions. Plates were resealed, and incubated with agitation, covered, room temperature, for 2 h. The washing was then repeated and 100 μL of room temperature TMB substrate was added. After approximately 30 minutes incubation (room temperature, agitation, covered), the reaction was stopped with 50 μL 3M sulfuric acid. Plates were read at 450 nm on a Molecular Devices Versamax plate reader.
Inhibitor effect was expressed as a percentage of DMSO-treated control signal, and inhibition curves were calculated using a 4-parameter equation: y=A+((B−A)/(1+((C/x)^D))), where C is half-maximal activity or EC50.

Assay [2] has as its target T1, NS3/NS4A-2 (full-length HCV NS3 protease complexed with NS4A-2) (Hepatitis C virus genotype 1a, UniProt P27958).
T1 construct: Recombinant E. coli or Baculovirus full-length NS3; host or cells: E. coli or baculovirus (insect cells)
Briefly: NS3 inhibition assay (NS3-NS4 protease assay). Conditions: recombinant full-length NS3/NS4A-2, RETS1 substrate, kinetic fluorescence read; read-out: NS3-NS4 IC50. It counts as biochemical. Here is the method:
Recombinant E. coli or Baculovirus full-length NS3 was diluted to 3.33 μM with assay buffer and transferred material to an eppendorf tube and place in water bath in 4° C. refrigerator. The appropriate amount of NS4A-2 to 8.3 mM in assay buffer was added to equal the volume of NS3 in step 2.1.1 (conversion factor −3.8 mg/272 μL assay buffer). The material was transferred to an eppendorf tube and place in water bath in 4° C. refrigerator.
After equilibration to 4° C., equal volumes of NS3 and NS4A-2 solutions were combined in an eppendorf tube, mix gently with a manual pipettor, and incubate mixture for 15 minutes in the 4° C. water bath. Final concentrations in the mixture are 1.67 μM NS3, 4.15 mM NS4A-2 (2485-fold molar excess NS4A-2).
After 15 minutes at 4° C., the NS3/NS4A-2 eppendorf tube was removed and place it in a room temperature water bath for 10 minutes. NS3/NS4A-2 was aliquoted at appropriate volumes and store at −80° C. (E. coli NS3 run at 2 nM in assay, aliquot at 25 μL. BV NS3 run at 3 nM in assay, aliquot at 30 μL).
Sample compounds were dissolved to 10 mM in DMSO then diluted to 2.5 mM (1:4) in DMSO. Typically, compounds were added to an assay plate at 2.5 mM concentration, yielding upon dilution a starting concentration of 50 microM in the assay inhibition curve. Compounds were serial diluted in assay buffer to provide test solutions at lower concentrations.
The E. coli. NS3/NS4A-2 was diluted to 4 nM NS3 (1:417.5 of 1.67 μM stock−18 μL1.67 μM stock+7497 μL assay buffer). The BV NS3/NS4A-2 was diluted to 6 nM NS3 (1:278.3 of 1.67 μM stock−24 μL1.67 μM stock+6655 μL assay buffer). Using the manual multichannel pipettor, careful not to introduce bubbles into the plate, add 50 μL assay buffer to wells A01-H01 of a black Costar 96-well polypropylene storage plate.
Using the manual multichannel pipettor, careful not to introduce bubbles into the plate, add 50 μL of diluted NS3/NS4A-2 from step 2.2.6 to wells A02-H12 of plate in step 2.2.7. Using the manual multichannel pipettor, careful not to introduce bubbles into the plate, transfer 25 μL of the wells in drug dilution plate in step 2.2.5 to corresponding wells in assay plate in step 2.2.8. Change tips on multichannel pipettor for each row of compounds transferred. Using the manual multichannel pipettor, careful not to introduce bubbles into the plate, mix the wells from the assay plate in step 2.2.9 by aspirating and dispensing 35 μL of the 75 μL in each well five times. Change tips on multichannel pipettor for each row of wells mixed. Cover plate with a polystyrene plate lid and pre-incubate the plate from step 2.2.10 containing NS3 protease and sample compounds 10 minutes at room temperature. While plate from step 2.2.11 is pre-incubating, dilute RETS1 substrate in a 15 mL polypropylene centrifuge tube. Dilute RETS1 substrate to 8 μM (1:80.75 of 646 μM stock−65 μL 646 μM stock+5184 μL assay buffer).
After the plate in step is done pre-incubating, and using the manual multichannel, add 25 μL of substrate to all wells on the plate. Quickly mix the plate as in step 2.2.10, mixing 65 μL of the 100 μL in the wells.
Read the plate in kinetic mode on the Molecular Devices SpectraMax Gemini XS plate reader. Reader settings: Read time: 30 minutes, Interval: 36 seconds, Reads: 51, Excitation λ: 335 nm, Emission λ: 495 nm, cutoff: 475 nm, Automix: off, Calibrate: once, PMT: high, Reads/well: 6, Vmax pts: 21 or 28/51 depending on length of linearity of reaction
IC50s are determined using a four parameter curve fit equation, and converted to Ki's using the following Km's: • Full-length E. coli NS3−2.03 μM • Full-length BV NS3−1.74 μM • where Ki=IC50/(1+[S]/Km)) • Quantitation by ELISA of the Selectable Marker Protein, Neomycin Phosphotransferase II (NPTII) in the HCV Sub-Genomic Replicon, GS4.3

T1 sequence (P27958 1027-1657, one chain of several): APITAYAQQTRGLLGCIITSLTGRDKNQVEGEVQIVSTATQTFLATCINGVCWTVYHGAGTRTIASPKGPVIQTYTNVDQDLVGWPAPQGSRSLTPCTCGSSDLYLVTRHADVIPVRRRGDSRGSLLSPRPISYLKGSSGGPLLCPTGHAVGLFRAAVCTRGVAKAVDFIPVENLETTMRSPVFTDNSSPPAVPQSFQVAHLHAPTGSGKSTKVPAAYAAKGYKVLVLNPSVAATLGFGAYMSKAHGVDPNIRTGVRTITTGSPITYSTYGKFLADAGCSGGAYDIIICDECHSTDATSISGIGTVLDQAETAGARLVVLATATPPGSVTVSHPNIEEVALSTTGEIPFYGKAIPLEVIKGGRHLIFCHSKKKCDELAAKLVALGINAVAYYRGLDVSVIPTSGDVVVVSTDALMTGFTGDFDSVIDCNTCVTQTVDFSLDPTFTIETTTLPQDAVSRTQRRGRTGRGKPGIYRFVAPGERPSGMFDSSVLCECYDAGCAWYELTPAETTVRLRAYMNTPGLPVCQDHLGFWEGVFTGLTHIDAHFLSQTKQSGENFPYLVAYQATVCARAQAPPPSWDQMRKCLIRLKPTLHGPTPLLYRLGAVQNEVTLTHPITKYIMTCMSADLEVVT

On to `C=C[C@@H]1C[C@]1(NC(=O)[C@@H]1C[C@@H](OC(=O)N2Cc3cccc(Cl)c3C2)CN1C(=O)[C@@H](Nc1cccc(C(C)(C)C)c1)C(C)C)C(=O)NS(=O)(=O)C1CC1` [Compound 41, [(3R,5S)-1-((S)-2-(3-tert-butylphenylamino)-3-methylbutanoyl)-5-((1R,2S)-1-(cyclopropylsulfonylcarbamoyl)-2-vinylcyclopropylcarbamoyl)pyrrolidin-3-yl]4-chloroisoindoline-2-carboxylate], for which the pEC50 in assay [1] (Hepatitis C virus, Huh-7) was more than 7.00. In assay [2], the negative-log IC50 (pIC50) is more than 7.00.

`CC[C@@H]1C[C@]1(NC(=O)[C@@H]1C[C@@H](OC(=O)N2Cc3cccc(Cl)c3C2)CN1C(=O)[C@@H](Nc1cncc(C(F)(F)F)c1)C(C)(C)C)C(=O)NS(=O)(=O)C1CC1` [Compound 58, [(3R,5S)-5-((1R,2R)-1-(cyclopropylsulfonylcarbamoyl)-2-ethylcyclopropylcarbamoyl)-1-((S)-3,3-dimethyl-2-(5-(trifluoromethyl)pyridin-3-ylamino)butanoyl)pyrrolidin-3-yl]4-chloroisoindoline-2-carboxylate]: the negative logarithm of the EC50 (pEC50) in assay [1] (Hepatitis C virus, Huh-7) is more than 7.00. Moreover, the pIC50 in assay [2] was more than 7.00.

Take “[(3R,5S)-5-(((1R,2R)-1-(Cyclopropylsulfonylcarbamoyl)-2-ethylcyclopropyl)carbamoyl)-1-((S)-2-cyclohexyl-2-(5-ethylthiazol-2-ylamino)acetyl)pyrrolidin-3-yl]4-chloroisoindoline-2-carboxylate [Compound 64]”: the negative logarithm of the EC50 (pEC50) in assay [1] is more than 7.00. Also, in assay [2], the negative-log IC50 (pIC50) is more than 7.00.

Turning to `CC[C@@H]1C[C@]1(NC(=O)[C@@H]1C[C@@H](OC(=O)N2Cc3cccc(F)c3C2)CN1C(=O)[C@@H](Nc1cccc(C)c1)C(C)C)C(=O)NS(=O)(=O)C1CC1` [Compound 49, [(3R,5S)-5-((1R,2R)-1-(cyclopropylsulfonylcarbamoyl)-2-ethylcyclopropylcarbamoyl)-1-((S)-3-methyl-2-(m-tolylamino)butanoyl)pyrrolidin-3-yl]4-fluoroisoindoline-2-carboxylate], the pEC50 in assay [1] (Hepatitis C virus, Huh-7) is 6.00 to 7.00. Further, the pIC50 in assay [2] is more than 7.00.

`C=C[C@@H]1C[C@]1(NC(=O)[C@@H]1C[C@@H](OC(=O)N2Cc3cccc(Cl)c3C2)CN1C(=O)[C@@H](Nc1ccc(F)cc1)C(C)C)C(=O)NS(=O)(=O)C1CC1` [Compound 34, [(3R,5S)-5-((1R,2S)-1-(cyclopropylsulfonylcarbamoyl)-2-vinylcyclopropylcarbamoyl)-1-((S)-2-(4-fluorophenylamino)-3-methylbutanoyl)pyrrolidin-3-yl]4-chloroisoindoline-2-carboxylate]: the negative-log EC50 (pEC50) in assay [1] (Hepatitis C virus, Huh-7) was more than 7.00. For the same compound, the negative-log IC50 (pIC50) in assay [2] was more than 7.00.

Consider `CC[C@@H]1C[C@]1(NC(=O)[C@@H]1C[C@@H](Oc2nc3ccccc3s2)CN1C(=O)[C@@H](Nc1cncc(C(F)(F)F)c1)C(C)(C)C)C(=O)NS(=O)(=O)C1CC1` [Compound 70], for which, in assay [1] (Hepatitis C virus, Huh-7), the pEC50 is more than 7.00. Also, the negative logarithm of the IC50 (pIC50) in assay [2] is more than 7.00.

In the case of `CC[C@@H]1C[C@]1(NC(=O)[C@@H]1C[C@@H](OC(=O)N2Cc3cccc(Cl)c3C2)CN1C(=O)[C@@H](Nc1cccc(C(C)(C)C)c1)C(C)C)C(=O)NS(=O)(=O)C1CC1` [Compound 46, [(3R,5S)-1-((S)-2-(3-tert-butylphenylamino)-3-methylbutanoyl)-5-((1R,2R)-1-(cyclopropylsulfonylcarbamoyl)-2-ethylcyclopropylcarbamoyl)pyrrolidin-3-yl]4-chloroisoindoline-2-carboxylate], in assay [1] (Hepatitis C virus, Huh-7), the pEC50 is more than 7.00. Besides, in assay [2], the negative-log IC50 (pIC50) is more than 7.00.

For `C=C[C@@H]1C[C@]1(NC(=O)[C@@H]1C[C@@H](OC(=O)N2Cc3cccc(Cl)c3C2)CN1C(=O)[C@@H](Nc1nc(C(F)(F)F)cs1)C1CCCCC1)C(=O)NS(=O)(=O)C1CC1` [Compound 63, [(3R,5S)-5-(((1R,2S)-1-(Cyclopropylsulfonylcarbamoyl)-2-vinylcyclopropyl)carbamoyl)-1-((S)-2-cyclohexyl-2-(4-(trifluoromethyl)thiazol-2-ylamino)acetyl)pyrrolidin-3-yl]4-chloroisoindoline-2-carboxylate], the negative-log EC50 (pEC50) in assay [1] (Hepatitis C virus, Huh-7) is more than 7.00. Further, in assay [2], the negative logarithm of the IC50 (pIC50) is more than 7.00.

For “[(3R,5S)-5-(((1R,2R)-1-(Cyclopropylsulfonylcarbamoyl)-2-ethylcyclopropyl)carbamoyl)-1-((S)-2-(5-ethylthiazol-2-ylamino)-3,3-dimethylbutanoyl)pyrrolidin-3-yl]4-chloroisoindoline-2-carboxylate [Compound 66]”, the pEC50 in assay [1] was more than 7.00. The negative-log IC50 (pIC50) in assay [2] is more than 7.00.
